The text below walks through data of PMC3943356 (Bioorganic & medicinal chemistry letters, 2013).

For experiment [1], the target named is VGLUT.
In experiment [2] the test system is VGLUT. The experiment can be described thus: Inhibition of 3H-L-Glu uptake into synaptic vesicles prepared from rat brain. To be noted: for reduction (block) of L-Glu uptake: compound at 250 µM, 3H-L-Glu 250 µM.
The test system of experiment [3] is KA receptors. To be noted: cited from earlier work.
The test system of experiment [4] is AMPA receptors. To be noted: cited from earlier work.
Experiment [5] deals with NMDA receptor. The following applies: cited from earlier work.
Experiment [6] concerns the target VGLUT. To be noted: read-out: Ki at VGLUT; cited from earlier work.

Where a name gives a salt, the structure may show the parent alone. Read-outs that look alike come from different tables or passages of the source.

As to `O=C(O)c1cc(C(=O)O)c2c(ccc3cc4ccccc4cc32)n1` [5,6-NQDC, Naphtho[2,3-f]quinoline-1,3-dicarboxylic acid], in experiment [1], the Ki was around 60 µM. Also, the “reduction (block) of L-Glu uptake” value in experiment [2] is given as “over 80%”.

Consider `O=C(O)c1cc(C(=O)O)c2ccc3cc4ccccc4cc3c2n1` [7,8-NQDC, Naphtho[2,3-h]quinoline-2,4-dicarboxylic acid], for which the Ki in experiment [1] is around 60 µM. The “reduction (block) of L-Glu uptake” value in experiment [2] was “similarly effective”.

Consider `C[C@]12CC[C@@H]3c4ccc(OC(=O)CCC(=O)O)cc4CC[C@H]3[C@@H]1CCC2=O` [Estrone hemisuccinate], for which the “reduction (block) of L-Glu uptake” value in experiment [2] is “inactive”.

Turning to `C[C@]12CC[C@@H]3c4ccc(O)cc4CC[C@H]3[C@@H]1CCC2=O` [Estrone], in experiment [2], the “reduction (block) of L-Glu uptake” value is “did not block L-Glu uptake to any appreciable level”.

On to `N[C@@H](CCC(=O)O)C(=O)O` [L-Glu, Glutamate], for which the Km in experiment [2] (read-out: Km of L-Glu uptake, Lineweaver-Burk plot, Fig. 3) was 2500 µM.

In the case of `CC(=O)[C@H]1CC[C@H]2[C@@H]3CC[C@@H]4C[C@@H](OS(=O)(=O)O)CC[C@]4(C)[C@H]3CC[C@]12C` [Pregnanolone sulfate], the “effect on KA receptors” value in experiment [3] is reported as “inhibits”. Also, the “effect on AMPA receptors” value in experiment [4] is reported as “inhibits”. For the same compound, in experiment [5], the “effect on NMDA receptor” value is reported as “inhibits”. In addition, in experiment [2], the “activity relative to the endogenous substrate L-Glu” value is “approximately 100 fold” and the “reduction (block) of L-Glu uptake” value is 85%. Besides, in experiment [2] (Lineweaver-Burk plot, increase in Km,app, no change in Vmax), the mechanism of inhibition entry is listed as “competitive inhibition”.

Consider `CC(=O)[C@H]1CC[C@H]2[C@@H]3CC=C4C[C@@H](O)CC[C@]4(C)[C@H]3CC[C@]12C` [Pregnenolone], for which the “reduction (block) of L-Glu uptake” value in experiment [2] is “did not block L-Glu uptake to any appreciable level”.

Take `CC(C)CC1C(=O)N2CCCC2C2(O)OC(NC(=O)C3C=C4c5cccc6[nH]c(Br)c(c56)CC4N(C)C3)(C(C)C)C(=O)N12` (centres unmarked) [bromocryptine]: in experiment [6], the Ki is around 22 µM.

Turning to Pregnenolone sulfate, the “effect on NMDA receptor” value in experiment [5] is “potentiate”. In addition, the “reduction (block) of L-Glu uptake” value in experiment [2] is given as 70%.
